Reference: patent US10222390B2, “Near-infrared fluorescent sensors for biological amines” (The Curators of the University of Missouri, priority 2015, dated 2019)
Where “and” joins values, the source holds several entries; their conditions need not be identical. Identical values can stand only once. Each block holds one compound with its values, some of them ahead of it.

How the values were obtained:
[1] = in vitro; cited from earlier work
[2] = Fluorescence/absorbance titration of NS715 with serotonin; type: binding
Description: (§1) NeuroSensor 715 was screened with various relevant amines via absorption and fluorescence spectroscopy. Steady-state fluorescence spectroscopic studies were performed using a Horiba Scientific Fluorolog-3 Model FL3C-111 spectrofluorometer and data was collected and analyzed using HJY FluorEssence™ 3.5.1.20 software package. UV-visible spectra were recorded on a Varian Cary 1E UV-visible spectrophotometer at 37° C.
(§2) A 1 mg/mL stock solution of NeuroSensor 715 in DMSO was prepared. A stock solution of NeuroSensor 715 and derivatives in buffer (2×10^−5 M, 25 mM HEPES, 50 mM Na2S2O3, pH 5.0) was prepared. Serotonin, norepinephrine, dopamine, and glutamate stock solutions were prepared by separately dissolving the analytes at the concentration to be used in the titrations with the buffered stock solution of NeuroSensor 715 (thus avoiding dilution of NeuroSensor 715 during the experiment). NeuroSensor 715 was titrated with aliquots of the analyte solution. NeuroSensor 715 derivatives were excited at 559 nm. The slit width was 10 nm for both excitation and emission.
NeuroSensor 715 binds to all primary amines via iminium ion formation, which produces a red shift in absorption from 500 to 546 nm (FIG. 6 (A)). In fluorescence mode, exciting the unbound NeuroSensor 715 at 559 nm provided fluorescence emission at 686 nm. In fluorescence mode, exciting the bound complex at 559 nm upon adding serotonin produced a marked 8.0-fold fluorescence enhancement at […] (FIG. 6 (B)).

[3] = Fluorescence/absorbance titration of NS715 with dopamine; type: binding
Description: as §1, §2

[4] = Fluorescence/absorbance titration of NS715 with norepinephrine; type: binding
Description: as §1, §2

[5] = Fluorescence/absorbance titration of NS715 with glutamate; type: binding
Description: as §1, §2

[6] = Interaction of NS715 with epinephrine in vitro; type: binding
[7] = tested on: norepinephrine-enriched chromaffin cells; test: Confocal imaging of norepinephrine-enriched chromaffin cells incubated with NS715; type: cell-based; details: NS715 10 μM
Description: (§3) NS715 binds to norepinephrine and strongly fluoresces, but not to epinephrine because it is a secondary-amine neurotransmitter. Both populations of cells were incubated with NS715 (10 μM), washed, and subsequently imaged using confocal microscopy. The unbound UV λmax=500 nm and the bound UV λmax=546 nm. The unbound sensor emits at 686 nm and the bound sensor emits at 715 nm. Excitation wavelengths of 458 nm and 633 nm were used to preferentially excite the unbound and bound forms of NS715. Emission for all excitation wavelengths was measured using 650 nm-710 nm bandpass filter.

[8] = tested on: epinephrine-enriched chromaffin cells; test: Confocal imaging of epinephrine-enriched chromaffin cells incubated with NS715; type: cell-based; details: NS715 10 μM
Description: as §3

[9] = Spectral characteristics of sensors (absorption, emission, Stokes shift); type: physicochemical
Description: as §1, §2

[10] = intensity at saturation from fit
[11] = λex = 559 nm, λem = 780 nm, buffer pH 5.0, error ±10%
[12] = sensor saturated with primary amine analyte (bound)
[13] = thiophene in place of benzene moiety on NeuroSensor 521 platform

Compound: CCN(CC)c1ccc2c(-c3ccc(OC)cc3)c(C=O)c(=O)oc2c1 [NS521]
fluorescence response upon interaction with serotonin [1]: fluorescence quenching

higher binding constant for serotonin compared to glutamate ([2]; serotonin vs glutamate, listed as NeuroSensor 715): 19 fold and 18 fold
higher binding constants of catecholamines compared to glutamate ([4]; norepinephrine and dopamine on average vs glutamate): 6.0 fold
increase of Stokes shift compared to thiophene-based NeuroSensor 521 derivative ([9]; both unbound and bound complex): over 125 nm
Stokes shift [9, 12]: 169 nm
λabs [9, 12]: 546 nm
λem [9, 12]: 715 nm
λabs ([9]; unbound sensor): 500 nm
λem ([9]; unbound sensor): 686 nm
Stokes shift ([9]; unbound sensor, listed as NeuroSensor 715): 186 nm
Compound: CCN1CCN(CC)c2cc3c(-c4cccs4)c(C=O)c(=O)oc3cc21 [NS715]
fluorescence enhancement ([2]; serotonin, at 715 nm): 8.0 fold
fluorescence enhancement ([2]; serotonin, excited at 559 nm, measured at 780 nm): 8.0 fold
Isat/I0 ([2]; serotonin, fluorescence intensity at saturation from fit to binding isotherm): 8.0
Ka ([2]; serotonin, fluorescence spectroscopy, λex = 559 nm, λem = 780 nm, buffer pH 5.0, error ±10%): 409 M⁻¹
fluorescence enhancement [3]: 3.4 fold
Isat/I0 [3, 10]: 4.0
Ka [3, 11]: 145 M⁻¹
fluorescence enhancement ([4]; norepinephrine): 3.0 fold
Isat/I0 ([4]; norepinephrine, intensity at saturation from fit): 3.4
Ka ([4]; norepinephrine, λex = 559 nm, λem = 780 nm, buffer pH 5.0, error ±10%): 129 M⁻¹
fluorescence enhancement [5]: 3.0 fold
Isat/I0 [5, 10]: 3.0
Ka [5, 11]: 22.3 M⁻¹
modulation of absorption or fluorescence spectrum upon interaction with epinephrine [6]: no modulation in the absorption or fluorescence spectrum
average fluorescence intensity of norepinephrine-enriched cells relative to epinephrine-enriched cells [7]: 15 fold
fluorescence when excited at 633 nm ([7]; norepinephrine-enriched cells): punctate pattern with strong fluorescence
average fluorescence intensity ([7]; norepinephrine-enriched cells, 650-710 nm bandpass, n=20): 12.42±1.75
fluorescence when excited at 633 nm [8]: marginal fluorescence
average fluorescence intensity ([8]; 650-710 nm bandpass, n=20): 0.85±0.29

Stokes shift [9, 12]: 37 nm
λabs [9, 12]: 502 nm
λem [9, 12]: 539 nm
bathochromic shift in absorbance [9, 13]: 10 nm
bathochromic shift in fluorescence emission [9, 13]: 17 nm
Stokes shift ([9]; unbound sensor): 60 nm
λabs ([9]; unbound sensor): 462 nm
λem ([9]; unbound sensor): 522 nm
Compound: CCN(CC)c1ccc2c(-c3cccs3)c(C=O)c(=O)oc2c1

Stokes shift [9, 12]: 32 nm
λabs [9, 12]: 488 nm
λem [9, 12]: 520 nm
Stokes shift ([9]; unbound sensor): 53 nm
λabs ([9]; unbound sensor): 452 nm
λem ([9]; unbound sensor): 505 nm
Compound: CCN(CC)c1ccc2c(-c3ccccc3)c(C=O)c(=O)oc2c1 [benzene-based NeuroSensor 521 derivative]
